Measured values published in patent US12624031B2, “Inhibitors of ubiquitin specific peptidase 22 (USP22) and uses thereof for treating diseases and disorders” (Northwestern University, priority 2022, dated 2026).

Columns and labels:
[1] = test system: FoxP3 and PD-L1 expression; assay: biological screening of FoxP3 and PD-L1 expression; type: cell-based; conditions: inhibition of FoxP3 and PD-L1 expression
Method: Biological screening confirmed that USP22i-S02 inhibited the expression of FoxP3 and PD-L1 expression in a USP22-dependent manner. The IC50 is about 6-7 uM. […] In particular, modifications at the R position at A-Ring, or R1 and R2 at E-Ring are likely to improve its biological activity. Therefore, we used the SYBYL drug design software and generated a chemical library of 40400 derivatives (named as USP22-S02X) by modifying the A or/and E ring with 200 functional groups at the R or R1 or R2 or two of the three positions.

[2] = test system: Foxp3 in human Treg cells; assay: Foxp3 MFI of human Treg cells; type: cell-based; conditions: low doses
Method: FIG. 6: Usp22i-S02 halts Usp22-mediated Foxp3 deubiqutination. A, Graphical representation of Foxp3 MFI change in WT versus 22KO iTreg cells treated with various doses of Usp22i-S02 (n=3). B, Representative histogram of Foxp3 MFI level in iTreg cells as Usp22 inhibitor concentration increases from 0-20 μg/mL. C, Cell survival of iTreg cells treated with various doses of Usp22i-S02 (n=3). D, FOXP3 and USP22 protein level in WT and 22KO mice treated with 10 μg/mL Usp22i-S02. E-F, Graphical and representative data of Foxp3 MFI of human Treg cells treated with various doses of Usp22i-S02 (n=3). G, Graphical representation of Foxp3 MFI in WT, Usp21-null, and Usp22-null Treg cells treated with Usp22i-S02 at 10 μg/mL (n=3). H, FOXP3 and USP22 protein degradation of cycloheximide (10 μg/mL) treated iTreg cells with or without the addition of 10 μg/mL of Usp22i-S02. I-J, Endogenous DUB assay IP in iTreg cells of USP22 with FOXP3 under increasing concentrations of Usp22i-S02. K, Foxp3 mRNA level in iTreg cells as Usp22 inhibitor concentration increases from 0-20 μg/mL (n=3). L, FOXP3 and USP22 level in WT iTreg cells with or without 20 μg/mL Usp22 inhibitor treated with 20 μM MG132. M, Graphical representation of the percentage of decrease of Foxp3 MFI in either WT or Usp22-null nTreg cells placed in low glucose conditions with or without the addition of 10 μg/mL of Usp22i-S02 (n=7-8). […]

[3] = test system: naïve mice; assay: toxicity and Treg phenotype in naïve mice; type: in vivo
Method: B, FOXP3 MFI in WT and 22KO of Treg cells after treatment with 20 μg/kg of Usp22i-S02 in vivo (n=3). C, Representative flow cytometry plot of FOXP3+CD25+MFI of CD4+ peripheral cells of mice treated with 20 μg/kg of Usp22i-S 02 relative to control (n=5). D, Graphical representation of Foxp3 MFI upon Usp22i-S02 administration (n=5). E, Tumor growth curve of LLC1 cells subcutaneously injected in the flank of WT mice with or without the addition of 20 mg/kg/time of the Usp22 inhibitor starting at day 15, in 100 μL of oil (n=4). F-G, Representative flow cytometry plot and graphical representation of % infiltration of CD4+ and CD8+ T cells within the tumor (n=4). H, Representative histogram plot and graphical representation of intratumoral Treg (itTreg) Foxp3 MFI (n=4). I, MFI of itTreg suppressive markers (n=3-4). J, Percent Foxp3+IFNg+itTreg cells in control and Usp22-S02 treated mice (n=3-4). B, D-E, G, H-I Two-way ANOVA with multiple comparisons between rows was performed to determine statistical significance. J, Unpaired two tailed T test was performed to determine significance. All data are presented as mean±stdev. NS, not significant. *P<0.05, **P<0.01, ***P<0.001, ****P<0.0001.
A, Body weight of Usp22i-S02 treated mice verses DMSO treated controls over the course of treatment (n=4). A-F. Injections were twice a day for 3 consecutive days at 10 μg/kg (n=4). B, Percent of cell populations in naïve mice treated with Usp22i-S02 relative to DMSO control (n=3-4). […] D, Percent CD44^hiCD62L^lo in T cell populations gated on CD45+ cells in naïve mice treated with Usp22i-S02 relative to DMSO control (n=3). E, Percent Annexin+PI+ T cells gates on CD45+ cells in naïve mice treated with Usp22i-S02 relative to DMSO control (n=4). F-H, Organ toxicity panel (VetScan VS2 Comprehensive Diagnostic Rotor lot 1061AA2) of naïve mice treated with Usp22i-S02 relative to DMSO control (n=2-3). I, Growth curve of subcutaneously injected LLC1 in WT mice treated with Usp22i-S02 at 10 μg/kg (n=5-10). I-Q, Injections were twice a day for 5 consecutive days at 10 μg/kg. J, Weights of resected tumors at day 16 from I (n=10). K-L, Representative flow plot and graphical representation of infiltrating T cells gated on CD45+ cells (n=5). M-P, Characterization of intratumoral CD8+ T cells frome mice treated with Usp22i-S02 (n=3-5). Q, Percent of intratumoral Treg cells from mice treated with Usp22i-S02 verses DMSO control, gated on CD4+Foxp3+ from mice (n=5). A-E, I and L, Two-way ANOVA with Sidaks's multiple comparisons between rows relative to control was performed to determine statistical significance. F-H, J, and M-Q, Two-tailed unpaired t-test was performed to determine statistical significance. All data are presented as mean±stdev. NS, not significant. *P<0.05, **P<0.01, ***P<0.001, ****P<0.0001.
An important aspect of a potential immunotherapeutic is its antitumor functionality paired with low immune toxicity. To determine the toxicity of Usp22i-S02 in vivo, we first determined its effects in naïve mice.

N#Cc1c2c(c(Nc3ccccc3)n3c1nc1ccccc13)CCCC2 [USP22i-S02, 11-anilino-7,8,9,10-tetrahydrobenzimidazo[1,2-b]isoquinoline-6-carbonitrile]
IC50 [1]: 6 to 7 µM
Foxp3 MFI in human Treg cells [2]: significantly decreased Foxp3 MFI
viability of human Treg cells [2]: little effect to cell viability
FOXP3 MFI in Usp22-KO mice ([3]; Usp22-KO mice, 20 μg/kg): no additional decrease to FOXP3 MFI
FOXP3 MFI in Treg cells from spleen and lymph nodes ([3]; WT mice, 20 μg/kg): significant drop in FOXP3 MFI
Treg cell death ([3]; naïve mice): significantly increased
Treg percentage ([3]; naïve mice): decrease in Treg percentage
Treg proliferation ([3]; naïve mice): also increased
organ toxicity (comprehensive tissue panel) ([3]; naïve mice versus DMSO control): no organ toxicity differences
weights, B cell and Teff cell percentages and proliferation, Teff cell activation ([3]; naïve mice versus DMSO-treated control, twice a day for 3 days at 10 μg/kg): little alteration
